# Patent US20260022341A1, “METHOD OF GENERATING A HOMOCELLULAR PROGENITOR CELL CULTURE FROM A HETEROCELLULAR TISSUE SAMPLE” (MOSA MEAT B.V., priority 2022, published 2026)
# Entries after “also recorded” stand apart in the source; their conditions may differ.
# Legend:
# Type in all cases: cell-based, bovine
# SCs and FAPs [1] = experiment: Long-term proliferation assay of SC/FAP mixtures on different coatings (FIG. 3); settings: compound applied as culture vessel coating, measured after every passage by ITGA7/ITGA5 flow cytometry
# Procedure: (§1) Cells were isolated, purified and cultured as described in Example 1. For long-term proliferation assays, mixtures of SCs and FAPs were cultured on different coatings (FIG. 3) or on Laminin 521 with different media (FIGS. 4A-4C). After every passage, the ratio of SCs to FAPs was measured as the ratio of ITGA7+/ITGA5−cells (SCs) to ITGA7−/ITGA5+cells (FAPs) via flow cytometry, as described in Example 1.
# Using long-term proliferation assays, combined with flow cytometry for ITGA7/ITGA5, we tested different compounds including extracellular matrix proteins tissue culture vessel coatings, and measured percentage of SCs over time in a cell culture that contains SCs and FAPs.
# SCs and FAPs [2] = experiment: Compound screening: ratio of SCs in a cell culture of SCs and FAPs after one passage (flow cytometry); settings: SFM1 base medium, HGF 10×=50 ng/ml, IC 50 μM, HC 138 nM, T3 30 nM, DAPT 5 or 10 μM, FGF2 10×=100 ng/ml, SB203580 10 μM, IL6 20 ng/ml, PDGF-bb 10×=50 ng/ml
# Procedure: Excess visible fat and fibrous tissue was removed prior to dissociation, and muscle fibers were dissociated using collagenase AFC A (Worthington, CLSAFA, 2000U/ml) for 45 minutes at 37° C. Muscle isolates were incubated in 1× ACK erythrocyte lysis buffer for 1 minute at room temperature. Cells were resuspended in a serum-free proliferation medium (SFM1 medium) and immediately seeded into fibronectin (4 μg cm-2 bovine fibronectin; F1141, Merck/Sigma) coated tissue culture plates, and pre-cultured at 37° C. for 72 hours. The serum-free proliferation medium that was used is as disclosed in WO 2021/158103, the contents of which are incorporated herein by reference, and is referred to therein as “SFM1” and contains: albumin (5 mg/ml), somatotropin (2 ng/ml), L-Ascorbic acid 2-phosphate (50 μg/ml), hydrocortisone (36 ng/ml), a-linolenic acid (1 μg/ml), insulin (10 μg/ml), transferrin (5.5 μg/ml), sodium selenite (0.0067 μg/ml), ethanolamine (2 μg/ml), L-alanyl-L-glutamine or glutamine (2 mM), IL-6 (5 ng/ml), FGF2 also referred to as bFGF (10 ng/ml), IGF1 (100 ng/ml), VEGF (10 ng/ml), HGF (5 ng/ml), PDGF-bb (10 ng/ml) and DMEM/F12 basal medium. In the experiments described herein, the SFM1 medium is also referred to as control (Ctrl) or base medium.
# After 72 hours of pre-culture, FAPS were sorted using a MACSQuant Tyto sorter (Miltenyi) based on absence of expression of JAM1, CD45, and integrin alpha 7 (ITGA7), and the positive expression of integrin alpha 5 (ITGA5). SCs were sorted based on the absence of expression of JAM1, CD45, ITGA5, and the positive expression of ITGA7.
# After FACS sorting, FAP cells and SC cells were cultured on collagen Type I coated tissue culture flasks at 37° C. and 5% CO2 in a serum-free proliferation medium (SFM1). Purities of SCs and FAPs were assessed at the end of each passage by measuring the expression of ITGA7 and ITGA5 via flow cytometry as described below.
# Sorted SCs and FAPs were stained with ITGA7-PE and […]. Subsequently, cells were washed and analyzed on a MACSQuant 10 flow analyzer (Miltenyi). Unstained cells were used as a negative control, and to define gating parameters. For the compound screenings (FIG. 2A), percentage of SCs relative to FAPs was determined after one culture passage.
# These informed the selection of compounds to favor the proliferation of either of the two cell types. Increasing or decreasing the concentration of growth factors targeting these receptors, or adding compounds that target downstream pathways, altered the growth of SCs relative to FAPs (FIG. 2A, FIG. 2B). As only SCs and FAPs were present in the cell cultures of FIG. 2A and 2B, measuring the relative amount (ratio) of SCs likewise provides information about the relative amount (ratio) of FAPs in the respective media. The ratio of SCs in the respective cell media was normalized against a control ratio (Ctrl; set at 1) which means that a promotion of SCs results in an increase of SCs compared to the control culture (>1), whereas a relative decrease of SCs in the medium compared to the control culture (<1) denotes at the same time for a promotion of FAP proliferation in the respective media.
# SCs and FAPs [3] = experiment: Long-term proliferation assay of SC/FAP mixtures on Laminin 521 with different media (FIGS. 4A-4C); settings: Laminin 521 coating
# Procedure: as §1
# Using Laminin 521 as a coating, we further used the previously identified compounds to adapt the base media (Ctrl) to favor the growth of SCs over FAPs (FIGS. 4A-4C).
# [4] = single media adaptation of base media (Ctrl): 10× HGF or T3 added
Molecule,percentage of SCs in total cells (SCs and FAPs) over long-term proliferation (SCs and FAPs [1]),"growth of SCs relative to FAPs (ratio of SCs normalized against control ratio, Ctrl set at 1) (SCs and FAPs [2])",also measured
Laminin 521: extracellular matrix protein used as tissue culture vessel coating,the percentage of SCs remained high,–,percentage of SCs in total cells (SCs and FAPs) over long-term proliferation (SCs and FAPs [1]; listed as laminin 521): allow for maintaining high percentages of SCs during proliferation
collagen,the proportion of FAPs increased quickly over 3 passages,–,percentage of SCs in total cells (SCs and FAPs) over long-term proliferation (SCs and FAPs [1]; listed as Collagen): favor proliferation of FAPs
fibronectin,the proportion of FAPs increased quickly over 3 passages; also recorded: favor proliferation of FAPs,–,–
Interleukin 6 [IL-6],–,specifically promoted the proliferation of FAPs,–
C[C@H](NC(=O)Cc1cc(F)cc(F)c1)C(=O)N[C@H](C(=O)OC(C)(C)C)c1ccccc1 [DAPT],–,specifically promoted the proliferation of SCs,–
"C[C@]12CCC(=O)C=C1CC[C@@H]1[C@@H]2[C@@H](O)C[C@@]2(C)[C@H]1CC[C@]2(O)C(=O)CO [HC, Hydrocortisone]",–,specifically promoted the proliferation of SCs,–
fibroblast growth factor 2 [FGF2],–,specifically promoted the proliferation of SCs,–
"COc1ccc2c(c1)c(CC(=O)O)c(C)n2C(=O)c1ccc(Cl)cc1 [IC, Indomethacin]",–,specifically promoted the proliferation of SCs,–
"N[C@@H](Cc1cc(I)c(Oc2ccc(O)c(I)c2)c(I)c1)C(=O)O [T3, Triiodothyronine, reference compound]",–,specifically promoted the proliferation of SCs,relative growth/proliferation of SCs compared to FAPs (SCs and FAPs [3]; [4]): promoted the relative growth/proliferation of SCs compared to FAPs
hepatocyte growth factor [HGF],–,specifically promoted the proliferation of SCs,relative growth/proliferation of SCs compared to FAPs (SCs and FAPs [3]; [4]): promoted the relative growth/proliferation of SCs compared to FAPs
"C[S+]([O-])c1ccc(-c2nc(-c3ccc(F)cc3)c(-c3ccncc3)[nH]2)cc1 (stereo not shown) [SB203580, 4-{4-(4-Fluorophenyl)-2-[4-(methanesulfinyl)phenyl]-1H-imidazol-5-yl} pyridine]",–,specifically promoted the proliferation of SCs,–
"vitronectin: extracellular matrix protein used as tissue culture vessel coating (protein, UniProt P04004 20-478, looked up) Vitronectin: DQESCKGRCTEGFNVDKKCQCDELCSYYQSCCTDYTAECKPQVTRGDVFTMPEDEYTVYDDGEEKNNATVHEQVGGPSLTSDLQAQSKGNPEQTPVLKPEEEAPAPEVGASKPEGIDSRPETLHPGRPQPPAEEELCSGKPFDAFTDLKNGSLFAFRGQYCYELDEKAVRPGYPKLIRDVWGIEGPIDAAFTRINCQGKTYLFKGSQYWRFEDGVLDPDYPRNISDGFDGIPDNVDAALALPAHSYSGRERVYFFKGKQYWEYQFQHQPSQEECEGSSLSAVFEHFAMMQRDSWEDIFELLFWGRTSAGTRQPQFISRDWHGVPGQVDAAMAGRIYISGMAPRPSLAKKQRFRHRNRKGYRSQRGHSRGRNQNSRRPSRATWLSLFSSEESNLGANNYDDYRMDWLVPATCEPIQSVFFFSGDKYYRVNLRTRRVDTVDPPYPRSIAQYWLGCPAPGHL",the percentage of SCs remained high,–,percentage of SCs in total cells (SCs and FAPs) over long-term proliferation (SCs and FAPs [1]; listed as Vitronectin): allow for maintaining high percentages of SCs during proliferation
"PDGF-bb: growth factor of the base medium (protein, UniProt P01127 82-190, looked up) Platelet-derived growth …: SLGSLTIAEPAMIAECKTRTEVFEISRRLIDRTNANFLVWPPCVEVQRCSGCCNNRNVQCRPTQVQLRPVQVRKIEIVRKKPIFKKATVTLEDHLACKCETVAAARPVT",–,specifically promoted the proliferation of FAPs,relative growth/proliferation of SCs compared to FAPs (SCs and FAPs [3]; single media adaptation 0× PDGF-bb (PDGF-bb absent from base media)): promoted the relative growth/proliferation of SCs compared to FAPs
